Measurements from ChEMBL document CHEMBL5506043, “A β-Carboline Derivate PAD4 Inhibitor Reshapes Neutrophil Phenotype and Improves the Tumor Immune Microenvironment against Triple-Negative Breast Cancer” (J Med Chem, 2024).
Activity calls are given as the source filed them. The calls are words filed in the database; no cut-off is given here.

How the values were obtained:
[1] = tested on: 4T1-Luc; assay: Antitumor activity against mouse orthotopic 4T1-Luc cells implanted in female BALB/c mouse assessed as improvement in animal survival at 10 mg/kg, iv administered via tail vein every 2 days for 9 times for 17 days and measured every 2 days; type: functional, organism-based; settings: time 17.0 day
[2] = tested on: 4T1; assay: Upregulation of feedback regulation-mediated PAD4 protein expression in mouse 4T1 cells at 0.5 to 2 uM measured after 48 hrs by immunoblot analysis; type: functional, cell-based; settings: dose 0.5-2 µM
[3] = AUC (0 to infinity) in male Sprague-Dawley rat at 3.5 mg/kg, iv by LC-MS/MS analysis; type: ADME, organism-based; settings: in vivo
[4] = tested on: Mus musculus; assay: In vivo inhibition of PAD4 in female BALB/c mouse implanted with mouse orthotopic 4T1-Luc cells assessed as inhibition of histone H3 citrullination in tumor at 10 mg/kg, iv administered via tail vein every 2 days for 9 times for 17 days by immunohistochemical staining based analysis; type: functional, organism-based; settings: time 17.0 day
[5] = tested on: Mus musculus; assay: (§1) Induction of tumor microenvironment in female BALB/c mouse implanted with mouse orthotopic 4T1-Luc cells assessed as increase in proportion of MHC-II-positive tumor-associated neutrophils at 1 to 10 mg/kg, iv administered via tail vein every 2 days for 9 times for 17 days by single-cell mass spectrometry flow cytometry analysis; type: functional, organism-based; settings: dose 1-10 mg/kg, time 17.0 day
[6] = Tmax in male Sprague-Dawley rat at 3.5 mg/kg, iv by LC-MS/MS analysis; type: ADME, organism-based; settings: in vivo
[7] = molecular target: Protein-arginine deiminase type-4 (Mus musculus) (UniProt Q9Z183); assay: Inhibition of PAD4 in BALB/c mouse bone marrow neutrophils assessed as reduction in histone H3 citrullination at 2 uM preincubated for 2 hrs followed by calcium ionophore A23187 addition and measured after 2 hrs by Hoechst 33342/Ly6G staining based laser confocal microscopic analysis; settings: Neutrophil, time 4.0 hrs
[8] = Toxicity in female BALB/c mouse implanted with mouse orthotopic 4T1-Luc cells assessed as effect on serum ALT level at 1 to 10 mg/kg, iv administered via tail vein every 2 days for 9 times for 17 days; type: organism-based; settings: in vivo, 408 h, dose 1-10 mg/kg, time 17 day
[9] = molecular target: Protein-arginine deiminase type-4 (Mus musculus) (UniProt Q9Z183); assay: Inhibition of PAD4 in mouse 4T1 cells assessed as reduction in histone H3 citrullination measured after 48 hrs by immunoblot analysis; type: cell-based; settings: dose 0.5-2 µM
[10] = tested on: 4T1-Luc; assay: Antitumor activity against mouse orthotopic 4T1-Luc cells implanted in iv dosed female BALB/c mouse assessed as inhibition of tumor growth administered via tail vein every 2 days for 9 times for 17 days and measured every 2 days by IVIS live cell imaging analysis; type: functional, organism-based; settings: dose 1-10 mg/kg, time 17.0 day
[11] = Toxicity in female BALB/c mouse implanted with mouse orthotopic 4T1-Luc cells assessed as effect on serum urea level at 1 to 10 mg/kg, iv administered via tail vein every 2 days for 9 times for 17 days; type: organism-based; settings: in vivo, 408 h, dose 1-10 mg/kg, time 17 day
[12] = molecular target: Protein-arginine deiminase type-4 (Mus musculus) (UniProt Q9Z183); assay: Inhibition of PAD4 in mouse 4T1 cells assessed as reduction in histone H3 citrullination at 2 uM by immunofluorescence analysis; type: cell-based
[13] = Cmax in male Sprague-Dawley rat at 3.5 mg/kg, iv by LC-MS/MS analysis; type: ADME, organism-based; settings: in vivo
[14] = tested on: Mus musculus; assay: as §1, with “m1 macrophage polarization by measuring upregulation” for “increase in proportion”, “conventional dendritic cells” for “MHC-II-positive tumor-associated neutrophils”; type: functional, organism-based; settings: dose 1-10 mg/kg, time 17.0 day
[15] = Toxicity in female BALB/c mouse implanted with mouse orthotopic 4T1-Luc cells assessed as effect on serum creatinine level at 1 to 10 mg/kg, iv administered via tail vein every 2 days for 9 times for 17 days; type: organism-based; settings: in vivo, 408 h, dose 1-10 mg/kg, time 17 day
[16] = tested on: MDA-MB-468; assay: Antiproliferative activity against human MDA-MB-468 cells assessed as inhibition of cell growth incubated for 48 hrs by MTT assay; type: functional, cell-based; settings: MDA-MB-468, 48 h
[17] = tested on: Mus musculus; assay: Induction of tumor microenvironment in female BALB/c mouse implanted with mouse orthotopic 4T1-Luc cells assessed as increase in MHC-II expression for MHC-II-negative tumor-associated neutrophils at 1 to 10 mg/kg, iv administered via tail vein every 2 days for 9 times for 17 days; type: functional, organism-based; settings: dose 1-10 mg/kg, time 17.0 day
[18] = Toxicity in female BALB/c mouse implanted with mouse orthotopic 4T1-Luc cells assessed as morphological changes in kidney at 1 to 10 mg/kg, iv administered via tail vein every 2 days for 9 times for 17 days by H and E staining based analysis; type: organism-based; settings: in vivo, 408 h, dose 1-10 mg/kg, time 17 day

Protein-arginine deiminase type-4 (Mus musculus), sequence (Q9Z183 whole entry): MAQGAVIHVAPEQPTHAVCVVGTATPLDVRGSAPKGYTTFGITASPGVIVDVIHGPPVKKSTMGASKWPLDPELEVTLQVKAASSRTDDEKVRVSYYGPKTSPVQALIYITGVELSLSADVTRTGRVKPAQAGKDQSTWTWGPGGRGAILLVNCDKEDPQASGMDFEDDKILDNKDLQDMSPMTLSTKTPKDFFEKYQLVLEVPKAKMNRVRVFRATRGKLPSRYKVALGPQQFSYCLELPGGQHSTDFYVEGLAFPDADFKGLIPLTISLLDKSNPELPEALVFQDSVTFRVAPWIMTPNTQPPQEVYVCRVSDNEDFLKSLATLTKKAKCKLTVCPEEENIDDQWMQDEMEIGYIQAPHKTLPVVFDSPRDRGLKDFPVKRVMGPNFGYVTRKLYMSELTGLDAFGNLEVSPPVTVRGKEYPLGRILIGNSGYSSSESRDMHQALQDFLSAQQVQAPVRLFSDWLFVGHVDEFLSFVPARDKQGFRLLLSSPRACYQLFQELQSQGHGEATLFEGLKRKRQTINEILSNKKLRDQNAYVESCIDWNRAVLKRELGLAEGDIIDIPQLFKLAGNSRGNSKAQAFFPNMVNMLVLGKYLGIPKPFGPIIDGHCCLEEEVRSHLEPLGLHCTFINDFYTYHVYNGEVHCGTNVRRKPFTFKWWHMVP

AUC [3]: 17346.55 ng·h/mL
Tmax [6]: 4.8 min
inhibition [7]: Active
inhibition [9]: Dose-Dependent Effect
inhibition [12]: Active
Cmax [13]: 297.71 ng/mL
IC50 [16]: 2340 nM
SMILES: N=C(CCl)NCCC[C@H](NC(=O)c1cc2c([nH]c3ccccc32)c(-c2ccccc2)n1)C(=O)NCc1ccccc1
Activity [1]: Active
Activity [2]: Active
inhibition [4]: Active
Activity [5]: Active
Activity [8]: Non-Toxic
Activity [10]: Dose-Dependent Effect
Activity [11]: Non-Toxic
Activity [14]: Active
Activity [15]: Non-Toxic
Activity [17]: Active
Activity [18]: Non-Toxic
